Source: patent US20260007680A1, “Compounds and Their Use as PDE4 Activators” (Mironid Limited, priority 2022, published 2026)

What follows are compounds tested on m-IMCD3 cells (assay: Inhibition of PGE2-stimulated in vitro cyst formation in 3D culture of m-IMCD3 cells (Experiment 4)). Details: Mus musculus, mIMCD3, 144 h, 10 μM test compound, mean cyst area compared to 100% for (DMSO + PGE2) and 0% for DMSO control, read-out: % Cyst area* after incubation with 10 μM test compound.
Type: cell-based, mouse
Protocol: HEK 293 and MDCK cells (Public Health England, Cell Culture Collections) were maintained in Dulbecco's Modified Eagle's Medium (DMEM) supplemented with 10% (v/v) fetal bovine serum (FBS) (Seralab), 2 mM L-glutamine and 100 U/ml penicillin streptomycin cocktail (ThermoFisher); termed complete media. Clonal HEK 293 cell lines were maintained in complete media supplemented with 0.6 mg/mL G418 (Enzo Life Sciences). Mouse inner medullary collecting duct (m-IMCD3) cells [American Type Culture Collection (ATCC)] were maintained in media consisting of DMEM/Hams F-12 50/50 Mix (DMEM F12; Corning) supplemented with penicillin streptomycin cocktail (100 U/ml) and FBS (10% v/v) (DMEM F12-10% FBS).
The mouse Inner Medullary Collecting Duct cell line (m-IMCD3) spontaneously forms cystic spheroids in 3D culture with a Type 1 collagen/Matrigel extracellular matrix. This process can be stimulated with agents which raise intracellular cAMP and is used as an in vitro model for the formation of cystic structures in the kidneys of patients with ADPKD.
Rat Collagen I (Fisher Scientific) is prepared on ice by neutralising with 1 M NaOH and diluting with a 2×volume of DMEM/F12+10% FBS. This is mixed 1:1.1 with ice cold Matrigel (Corning) for coating plates (coating mix), and 1:0.93 with Matrigel for cell plating (plating mix).
The assay is conducted in the wells of a 96-well plate culture dish using a total volume of 130 μL of collagen/Matrigel/DMEM F12-10% FBS suspension in growth media for each matrix plug per individual well. Initially, 30 μL of collagen/Matrigel/DMEM F12-10% FBS (coating mix) is added into the well of a 96 well plate and the collagen is set to a gel by incubating at 37° C. for at least 15 minutes. A second layer of 100 μL collagen/Matrigel suspension (plating mix) containing m-IMCD3 cells (2.75×10^6 m-IMCD3 cells per 96-well plate) is layered over the coating mix and the collagen/Matrigel/cell mix again set to a gel by incubating at 37° C. Cell cultures are maintained at 37° C. in an atmosphere of 5% CO2, 95% air.
Between 18 and 24 h after plating, test compound(s) as DMSO stock solutions [0.1% (v/v) final DMSO concentration] and PGE2 (100 nM final concentration) in DMEM F12-10% FBS are added in quadruplicate wells per condition. Media, together with the test compound and PGE2 are replenished after 2 or 3 days. After 6 days of culture z stack images of the wells are captured using the Nikon Eclipse Ti2-E microscope. Nikon General Analysis software is used to measure the following parameters in each well: the mean cyst area, the number of cysts, and the total cyst area.
PDE4 long form activators inhibited in vitro cyst formation in m-IMCD3 cells. Data are shown in FIG. 2 and Table 4 as mean cyst area (%), compared to 100% for (DMSO+PGE2) and 0% for DMSO control.

Going from Cc1c(C(=O)N[C@H]2CCOc3ccccc32)cnc2cc(C3CCN(C)CC3)nn12 [Example 95, N-[(4S)-3,4-dihydro-2H-1-benzopyran-4-yl]-7-methyl-2-(1-methylpiperidin-4-yl)pyrazolo[1,5-a]pyrimidine-6-carboxamide] to CN1CCC(c2cc3ncc(C(=O)N[C@H]4CCOc5ccccc54)cn3n2)CC1 [Example 88, (S)—N-(chroman-4-yl)-2-(1-methylpiperidin-4-yl)pyrazolo[1,5-a]pyrimidine-6-carboxamide], the activity at 10 µM rises from 13% to 15%.

First: Cc1c(C(=O)NC2CCC(F)(F)CC2)cnc2cc(C3CCN(C)CC3)nn12 [Example 96, N-(4,4-difluorocyclohexyl)-7-methyl-2-(1-methylpiperidin-4-yl)pyrazolo[1,5-a]pyrimidine-6-carboxamide]
Second: CCN1CCC(c2cc3ncc(C(=O)N[C@H]4CCOc5ccccc54)cn3n2)CC1 [Example 84, (S)—N-(chroman-4-yl)-2-(1-ethylpiperidin-4-yl)pyrazolo[1,5-a]pyrimidine-6-carboxamide]
The activity at 10 µM of the first is higher: 11% for the first, 7% for the second.

Going from CC(C)N1CCN(c2nc3ccc(C(=O)N[C@H]4CCOc5ccccc54)cn3n2)CC1 [Example 46, (S)—N-(chroman-4-yl)-2-(4-isopropylpiperazin-1-yl)-[1,2,4]triazolo[1,5-a]pyridine-6-carboxamide] to CN1CCN(c2nc3cc(C(=O)N[C@H]4CCOc5ccccc54)ccn3n2)CC1 [Example 56, (S)—N-(chroman-4-yl)-2-(4-methylpiperazin-1-yl)-[1,2,4]triazolo[1,5-a]pyridine-7-carboxamide], the activity at 10 µM rises from 4% to 14%.

Compared with CCN1CCN(c2nc3cc(C(=O)N[C@H]4CCOc5ccccc54)ccc3o2)CC1 [Example 102, (S)—N-(chroman-4-yl)-2-(4-ethylpiperazin-1-yl)benzo[d]oxazole-5-carboxamide], CCN1CCN(c2cc3ncc(C(=O)N[C@H]4CCOc5ccccc54)cn3n2)CC1 [Example 70, (S)—N-(chroman-4-yl)-2-(4-ethylpiperazin-1-y)pyrazolo[1,5-a]pyrimidine-6-carboxamide] is lower in activity at 10 µM: 8% for the first, 5% for the second.

Compared with O=C(N[C@H]1CCOc2ccccc21)c1cnc2cc(C3CCNCC3)nn2c1 [Example 82, (S)—N-(chroman-4-yl)-2-(piperidin-4-yl)pyrazolo[1,5-a]pyrimidine-6-carboxamide], O=C(N[C@H]1CCOc2ccccc21)c1cnc2cc(N3CCNCC3)nn2c1 [Example 68, (S)—N-(chroman-4-yl)-2-(piperazin-1-yl)pyrazolo[1,5-a]pyrimidine-6-carboxamide] is higher in activity at 10 µM: 3% for the first, 9% for the second.

Going from CN1CCC(c2nc3ccc(C(=O)N[C@H]4CCOc5ccccc54)cn3n2)CC1 [Example 50, (S)—N-(chroman-4-yl)-2-(1-methylpiperidin-4-yl)-[1,2,4]triazolo[1,5-a]pyridine-6-carboxamide] to O=C(N[C@H]1CCc2ccccc21)c1ccc2nc(N3CCNCC3)nn2c1 [Example 48, (S)—N-(2,3-dihydro-1H-inden-1-yl)-2-(piperazin-1-yl)-[1,2,4]triazolo[1,5-a]pyridine-6-carboxamide], the activity at 10 µM rises from 6% to 22%.

O=C(NCc1ccc(F)cc1)c1cnc2cc(C3CCNCC3)nn2c1 [Example 89, N-(4-fluorobenzyl)-2-(piperidin-4-yl)pyrazolo[1,5-a]pyrimidine-6-carboxamide] and CCN1CCN(c2cc3ncc(C(=O)NC4CCCCC4)cn3n2)CC1 [Example 73, N-cyclohexyl-2-(4-ethylpiperazin-1-yl)pyrazolo[1,5-a]pyrimidine-6-carboxamide] are the same in activity at 10 µM: -3% for the first, -3% for the second.

Going from CCN1CCN(c2nc3ccc(C(=O)NC4CCCC4)cc3o2)CC1 [Example 108, N-cyclopentyl-2-(4-ethylpiperazin-1-yl)benzo[d]oxazole-6-carboxamide] to O=C(NC1CCCC1)c1cnc2cc(N3C4CCC3CNC4)sc2c1 [Example 121, 2-(3,8-diazabicyclo[3.2.1]octan-8-yl)-N-cyclopentylthieno[3,2-b]pyridine-6-carboxamide], the activity at 10 µM falls from 24% to 3%.
